Assay results as given in US20250163169A1, “ANTIBODIES FOR PREVENTING THE CLEAVAGE OF CD95L BY METALLOPROTEASES” (INSTITUT NATIONAL DE LA SANTÉ ET DE LA RECHERCHE MÉDICALE, priority 2022, published 2025).

Columns and labels:
[1] = test system: CD95L-expressing leukemic T cell 1A12; assay: Expression level of membrane-bound CD95L on 1A12 cells by flow cytometry; type: cell-based; settings: 24 h, antibodies 10 pg/mL, GM6001 10 μM
Description: (§1) FIG. 2. Monoclonal antibodies targeting the Metalloprotease-Cleavage Sites of CD95L (MCSCs). […] Arrows represent putative cleavage site in CD95L sequence. […] Indicated peptides were injected in mice to generate monoclonal antibodies and three different hybridoma were selected regarding their ability to bind CD95L. […] B. Recombinant Ig-CD95L (100 ng) was pre-incubated for 15 min with indicated antibodies (100 pg/mL) and then treated for 1h with the indicated MMPs. The metalloprotease-cleaved fragment of Ig-CD95L (CD95L devoid of its released Ig domain of gp190) was monitored by immunoblotting. C. CD95L-expressing leukemic T cell 1A12 was incubated for 24 h with indicated antibodies ([…]) or the pan-MMP inhibitor GM6001 (10 μM) and the expression level of membrane-bound CD95L was assessed by flow cytometry. D. Supernatants were harvested from cells treated in C and the metalloprotease-cleaved CD95L was dosed by ELISA (Diaclone).

[2] = test system: s-CD95L release from 1A12 cells; assay: Metalloprotease-cleaved CD95L dosed by ELISA in supernatants of 1A12 cells; type: cell-based; settings: 1A12 cells treated 24 hours, vs isotype (anti-myc 9E10 mAb) control
Description: as §1

For `CNC(=O)[C@H](Cc1c[nH]c2ccccc12)NC(=O)[C@@H](CC(=O)NO)CC(C)C` [GM6001, reference compound], the “Expression level of membrane-bound CD95L” value [1] was “augmentation of m-CD95L” and the “Concentrations of s-CD95L in supernatant” value [2] was “significantly reduced”.
